# Experimental data from EP0499662A1, “Compositions with enhanced penetration” (WARNER-LAMBERT COMPANY, priority 1991, dated 1992).
# Assay: in vitro permeation (diffusion) study across hairless mouse skin
smiles,measurement,setting,value
"C[C@]12CCC(=O)C=C1CC[C@@H]1[C@@H]2[C@@H](O)C[C@@]2(C)[C@H]1CC[C@]2(O)C(=O)CO [Hydrocortisone, hydrocortisone]",Avg. Flux,"formulation EtOH, saturated with the drug except for verapamil, average of the flux values at each sampling time within 24 hours",0.64 µg/cm^2/h
same,Avg. Flux,"formulation EtOH:Mig 20:80, saturated with the drug except for verapamil, average within 24 hours",10.24 µg/cm^2/h
same,Avg. Flux,"formulation Mig (Miglyol 840), saturated with the drug except for verapamil, average within 24 hours",1.49 µg/cm^2/h
